Where “and” joins values, the source holds several entries; their conditions need not be identical. Equal values may be shown once.
Legend:
[1] = system: hydrogen peroxide (DHR) in NHEK cells; assay: Protection against UV-induced H2O2 stress in NHEK (DHR probe, flow cytometry); format: cell-based, human; conditions: 180 mJ/cm^2 UVB (2839 mJ/cm^2 UVA); for H2O2 (AU) (DHR GMFI): single values
Protocol: Pre-incubated NHEK were incubated with the test compound for 24 h. Then the specific fluorescence probe for the measurement of hydrogen peroxide (DHR) or lipid peroxides (C11-fluor) was added and incubated for 45 min. Irradiation occurred with in H2O2 determination UVB at 180 mJ/cm^2 (+UVA at 2839 mJ/cm^2) or UVB at 240 mJ/cm^2 (+UVA at 3538 mJ/cm^2) in lipid peroxide, respectively, using a SOL500 Sun Simulator lamp. After irradiation the cells were post-incubated for 30 min before flow-cytometry analysis.

STAT3 = STAT3 activity in HeLa-STAT3-luc cells stimulated with IFN-γ (luciferase); format: cell-based; conditions: for Mean: mean of triplicate wells
Protocol: HeLa-STAT3-luc cells were stably transfected with the plasmid 4xM67 pTATA TK-Luc. Cells (20×10^3 cells/ml) were seeded 96-well plate the day before the assay. Then the cells were treated with the test substances for 15 min and then stimulated with IFN-γ 25 IU/ml. After 6 h, the cells were washed twice with PBS and lysed in 50 μl lysis buffer containing 25 mM Tris-phosphate (pH 7.8), 8 mM MgCl2, 1 mM DTT, 1% Triton X-100, and 7% glycerol during 15 min at RT in a horizontal shaker. Luciferase activity was measured using GloMax 96 microplate luminometer (Promega) following the instructions of the luciferase assay kit (Promega, Madison, Wis., USA). […] The experiments for each concentration of the test items were done in triplicate wells.

NF-κB = NF-κB activity in NIH3T3-KBF-Luc cells stimulated with TNFα (luciferase); format: cell-based; conditions: for % Activation: TNFα alone = 100
Protocol: NIH3T3-KBF-Luc cells were stably transfected with the KBF-Luc plasmid (Sancho (2003) Mol Pharmacol 63:429-438), which contains three copies of NF-κB binding site (from major histocompatibility complex promoter), fused to a minimal simian virus 40 promoter driving the luciferase gene. Cells (1×10^4 for NIH3T3-KBF-Luc) were seeded the day before the assay on 96-well plate. Then the cells were treated with the test substances for 15 min and then stimulated with 30 ng/ml of TNFα. After 6 h, the cells were washed twice with PBS and lysed in 50 μl lysis buffer containing 25 mM Tris-phosphate (pH 7.8), 8 mM MgCl2, 1 mM DTT, 1% Triton X-100, and 7% glycerol during 15 min at RT in a horizontal shaker. Luciferase activity was measured using a GloMax 96 microplate luminometer (Promega) following the instructions of the luciferase assay kit (Promega, Madison, Wis., USA). […] The experiments for each concentration of the test items were done in triplicate wells.

HaCaT cells = assay: Glucose uptake (2-NBDG) in HaCaT keratinocytes; format: cell-based; set-up: key to Measure 1 / Measure 2 / Measure 3 / Mean: total green object integrated intensity, GCU×μm2×Well; conditions: +2NBDG 50 μM, 24 h; for Measure 1 / Measure 2 / Measure 3: HaCaT cells, fluorescence; for RFU specific: mean minus control; for Mean: mean of triplicate measurements; for % Glucose uptake: Rosiglitazone 80 μM = 100%
Protocol: HaCaT cells (5×10^4) were seeded in 96-well black plates and incubated for 24 h. Then, medium was removed and the cells cultivated in OptiMEM, labeled with 50 μM 2-NBDG (2-[N-(7-nitrobenz-2-oxa-1,3-diazol-4-yl) amino]-2-deoxy-D-glucose and treated with the test substances or the positive control, Rosiglitazone, for 24 h. Medium was removed and the wells were carefully washed with PBS and incubated in PBS (100l/well). Finally the fluorescence was measured using the Incucyte FLR software, the data were analyzed by the total green object integrated intensity (GCU×μm2×Well) of the imaging system IncuCyte HD (Essen BioScience). The fluorescence of Rosiglitazone is taken as 100% of glucose uptake, and the glucose uptake was calculated as (% Glucose uptake)=100(T−B)/(R−B), where T (treated) is the fluorescence of test substance-treated cells, B (Basal) is the fluorescence of 2-NBDG cells and […] is the fluorescence of cells treated with Rosiglitazone.

[2] = 25 μM + IFNγ 25 U/ml, IFNγ alone = 100
[3] = 50 μM + IFNγ 25 U/ml, IFNγ alone = 100

## COc1ccc(O)c(C(C)(C)C)c1 [BHA]
[1]; 100 μM
  H2O2 % irradiated control: 42%
  H2O2 (AU) Mean: 776 AU
  H2O2 Protection %: 70%
  H2O2 (AU) (DHR GMFI): 740 AU and 834 AU and 754 AU

## COc1ccc(-c2coc3cc(O[C@@H]4OC(C)[C@H](O)C(O)C4O)cc(O[C@@H]4OC(C)[C@H](O)C(O)C4O)c3c2=O)cc1 (stereo partly drawn) [BR1, Biochanin A-5,7-di-O-α-L-rhamnoside]
STAT3; 25 μM + IFNγ 25 U/ml
  RLU 1: 8162 RLU
  RLU 2: 12819 RLU
  RLU 3: 11157 RLU
  RLU MEAN: 10713 RLU
  RLU specific: 8878 RLU
STAT3; [2]
  % Activation: 110.41%
STAT3; 50 μM + IFNγ 25 U/ml
  RLU 1: 12336 RLU
  RLU 2: 11620 RLU
  RLU 3: 12104 RLU
  RLU MEAN: 12020 RLU
  RLU specific: 10185 RLU
STAT3; [3]
  % Activation: 126.67%
NF-κB; 10 μM + 30 ng/ml TNFα
  RLU 1: 259120 RLU
  RLU 2: 247590 RLU
  RLU 3: 229500 RLU
  RLU MEAN: 245403 RLU
  RLU specific: 222040 RLU
  % Activation: 170.3%
NF-κB; 25 μM + 30 ng/ml TNFα
  RLU 1: 211660 RLU
  RLU 2: 208010 RLU
  RLU 3: 203720 RLU
  RLU MEAN: 207797 RLU
  RLU specific: 184433 RLU
  % Activation: 141.4%

## Cc1c(C)c2c(c(C)c1O)CC[C@@](C)(CCC[C@H](C)CCC[C@H](C)CCCC(C)C)O2 [Vit. E]
[1]; 50 μM
  H2O2 % irradiated control: 35%
  H2O2 (AU) Mean: 655 AU
  H2O2 Protection %: 78%
  H2O2 (AU) (DHR GMFI): 628 AU and 650 AU and 687 AU

## Chrysin-5-O-α-L-rhamnoside [CR2]
HaCaT cells; 25 μM test substance
  Measure 1: 427937
  Measure 2: 431593
  Measure 3: 390512
  RFU specific: 410367 RFU
  Mean: 416681
  % Glucose uptake: 47.2%
HaCaT cells; 50 μM test substance
  Measure 1: 771478
  Measure 2: 1100390
  Measure 3: 923151
  RFU specific: 925359 RFU
  Mean: 931673
  % Glucose uptake: 106.5%
NF-κB; 10 μM + 30 ng/ml TNFα
  RLU 1: 156600 RLU
  RLU 2: 160140 RLU
  RLU 3: 151070 RLU
  RLU MEAN: 155937 RLU
  RLU specific: 132573 RLU
  % Activation: 101.7%
NF-κB; 25 μM + 30 ng/ml TNFα
  RLU 1: 170390 RLU
  RLU 2: 179220 RLU
  RLU 3: 163490 RLU
  RLU MEAN: 171033 RLU
  RLU specific: 147670 RLU
  % Activation: 113.2%

## Diosmetin-5-O-α-L-rhamnoside [DR2]
STAT3; 25 μM test substance, +IFNγ 25 U/ml, HeLa-STAT3-luc cells, replicate well 1
  RLU 1: 12137 RLU
STAT3; 25 μM test substance, +IFNγ 25 U/ml, HeLa-STAT3-luc cells, replicate well 2
  RLU 2: 10269 RLU
STAT3; 25 μM test substance, +IFNγ 25 U/ml, HeLa-STAT3-luc cells, replicate well 3
  RLU 3: 9275 RLU
STAT3; 25 μM test substance, +IFNγ 25 U/ml, mean minus control
  RLU specific: 8553 RLU
STAT3; 25 μM test substance, +IFNγ 25 U/ml
  Mean: 10560 RLU
STAT3; 25 μM test substance, +IFNγ 25 U/ml, IFNγ alone = 100% activation
  % Activation: 68.33%
STAT3; 50 μM test substance, +IFNγ 25 U/ml, HeLa-STAT3-luc cells, replicate well 1
  RLU 1: 13005 RLU
STAT3; 50 μM test substance, +IFNγ 25 U/ml, HeLa-STAT3-luc cells, replicate well 2
  RLU 2: 10547 RLU
STAT3; 50 μM test substance, +IFNγ 25 U/ml, HeLa-STAT3-luc cells, replicate well 3
  RLU 3: 10143 RLU
STAT3; 50 μM test substance, +IFNγ 25 U/ml, mean minus control
  RLU specific: 9224 RLU
STAT3; 50 μM test substance, +IFNγ 25 U/ml
  Mean: 11232 RLU
STAT3; 50 μM test substance, +IFNγ 25 U/ml, IFNγ alone = 100% activation
  % Activation: 73.69%
HaCaT cells; 25 μM test substance
  Measure 1: 632398
  Measure 2: 940240
  Measure 3: 197738
  RFU specific: 583811 RFU
  Mean: 590125
  % Glucose uptake: 67.2%
HaCaT cells; 50 μM test substance
  Measure 1: 2958363
  Measure 2: 1297231
  Measure 3: 2493030
  RFU specific: 2243227 RFU
  Mean: 2249541
  % Glucose uptake: 258.2%
NF-κB; 10 μM + 30 ng/ml TNFα
  RLU 1: 211150 RLU
  RLU 2: 215320 RLU
  RLU 3: 213260 RLU
  RLU MEAN: 213243 RLU
  RLU specific: 189880 RLU
  % Activation: 145.6%
NF-κB; 25 μM + 30 ng/ml TNFα
  RLU 1: 245900 RLU
  RLU 2: 241550 RLU
  RLU 3: 234880 RLU
  RLU MEAN: 240777 RLU
  RLU specific: 217413 RLU
  % Activation: 166.7%

## Silibinin-5-O-α-L-rhamnoside [SR1]
STAT3; 25 μM + IFNγ 25 U/ml
  RLU 1: 9507 RLU
  RLU 2: 11653 RLU
  RLU 3: 10203 RLU
  RLU MEAN: 10454 RLU
  RLU specific: 8447 RLU
STAT3; [2]
  % Activation: 92.24%
STAT3; 50 μM + IFNγ 25 U/ml
  RLU 1: 10090 RLU
  RLU 2: 11355 RLU
  RLU 3: 10938 RLU
  RLU MEAN: 10794 RLU
  RLU specific: 8787 RLU
STAT3; [3]
  % Activation: 95.95%
NF-κB; 10 μM + 30 ng/ml TNFα
  RLU 1: 269710 RLU
  RLU 2: 262180 RLU
  RLU 3: 254090 RLU
  RLU MEAN: 261993 RLU
  RLU specific: 229147 RLU
  % Activation: 154.8%
NF-κB; 25 μM + 30 ng/ml TNFα
  RLU 2: 171280 RLU
  RLU 3: 171730 RLU
  RLU MEAN: 172650 RLU
  RLU specific: 139803 RLU
  % Activation: 94.4%

— US20190100549A1, “FLAVONOIDE-TYPE COMPOUNDS BEARING AN O-RHAMNOSYL RESIDUE” (Universitaet Hamburg, priority 2016, published 2019)
